≈ marks a conversion by molar mass, not a printed value.

Test [1] has as its system Methicillin Resistant Staphylococcus aureus strain USA 300, NRS384 (S. aureus). Briefly: Minimum inhibitory concentration, broth micro-dilution (CLSI). To be noted: MRSA / NRS 384 / USA300, MRSA USA 300, NRS384, 35° C., 22 hours, cation adjusted Mueller Hinton Broth with 0.002% Tween-80, read-out: MIC (μg/mL) S. aureus. The test is classed as cell-based. The protocol: (§1) In vitro antimicrobial activity of each compound was determined by measuring minimal inhibitor concentrations (MICs) using the broth micro-dilution technique as approved by the Clinical and Laboratory Standards Institute (CLSI) (Methods for Dilution Antimicrobial Susceptibility Tests for Bacteria that Grow Aerobically; Approved Standard—Eighth Edition. CLSI document M07-A8. Wayne, Pa.: Clinical and Laboratory Standards; 2009). Antibacterial activity was measure against three strains of bacteria: a Methicillin Resistant Staphylococcus aureus strain USA 300, NRS384 (S. aureus); a strain of Escherichia coli MC4100 harboring the IMP4213 (E. coli IMP), which results in increased outer-membrane permeability (B Martin and Silhavy T. Imp/OstA is required for cell envelope biogenesis in Escherichia coli. (2002) Molecular Microbiology, 45(5), 1289-1302), and Escherichia coli ATCC 25922 (E. coli), a clinically relevant Gram-negative strain. Cells were inoculated onto plates of Trypyticase Soy Agar or Luria Agar respectively and grown at 35° C. for 20 hours. Inocula suspensions were prepared by scraping cells into 1 mL of testing media (cation adjusted Mueller Hinton Broth supplemented with 0.002% v/v Tween-80) and diluting to a final OD600 nm of 0.01.
(§2) Test compounds were prepared in DMSO at a concentration of 10 mg/mL. […] In protocol 2, the compound stocks were diluted into testing media at a concentration of 4 μg/mL and serial 2-fold dilutions were made in the same media, in 96-well U bottom microtiter dishes, for a total of 10 compound concentrations. In protocol 3, compound stocks were diluted into testing media at a concentration of 0.5 μg/mL, with serial 2-fold dilutions conducted as described above. […] Inocula suspensions were added to the 2-fold serial dilutions of test compounds to a final density of OD OD600 nm of 0.0005 and incubated at 35° C. for 22 hours.

In test [2] the target is T1, SpsB (Staphylococcus aureus signal peptidase) (Staphylococcus aureus, UniProt P0A070).
T1 construct: a suspension of Staphylococcus aureus cells as a source of SpsB instead of recombinant SpsB protein; endogenous in cells; host or cells: S. aureus, USA300 background, overexpressing SpsB (whole-cell suspension)
T1 sequence (P0A070 whole entry): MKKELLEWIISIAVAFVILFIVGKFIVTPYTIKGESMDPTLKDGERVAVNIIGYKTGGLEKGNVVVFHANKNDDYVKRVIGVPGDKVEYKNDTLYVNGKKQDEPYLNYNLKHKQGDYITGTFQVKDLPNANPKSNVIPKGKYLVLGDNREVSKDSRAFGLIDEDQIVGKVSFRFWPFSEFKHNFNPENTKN
Description: Whole-cell SpsB biochemical screening assay (kinetic fluorogenic enzyme activity). The protocol: A kinetic fluorogenic enzyme activity assay was used to assess inhibition of SpsB (Staphylococcus aureus signal peptidase) activity and IC50s were determined. This assay uses a suspension of Staphylococcus aureus cells as a source of SpsB instead of recombinant SpsB protein.
Cell preparation: Luria broth (LB) was inoculated with S. aureus (USA300 background, overexpressing SpsB) and shaken at 37° C. until an OD600 nm of 1.5-2.0 was reached (˜4 hr). The culture was then diluted to an OD600 nm of 1.0 with LB, aliquoted and centrifuged at 10,000×g for 2 mins. The supernatant was removed and the pellet was resuspended in phosphate buffer (1×PBS, 12.5 mg/L MgCl2, 25 mg/L CaCl2, 0.1% Tween-80) to an OD600 nm of 0.5, then centrifuged again at 10,000×g for 2 mins. The supernatant was removed and the pellets were frozen at −20° C.
Test compounds were prepared in DMSO at a concentration of 10 mg/mL. These compound stocks were diluted into DMSO to a concentration of 25 μg/mL and serial 3-fold dilutions were made in DMSO, for a total of 11 compound concentrations. 20 nL of each compound solution was pre-spotted into a white 384-well plate (50 μL/well polypropylene, Nunc) using acoustic fluid transfer (Echo).
Frozen S. aureus pellets were resuspended in assay buffer (1×PBS, 12.5 mg/L MgCl2, 25 mg/L CaCl2, 0.1% Tween-80) to an OD600 nm of 0.05, then mixed 1:1 (v/v) with 20 μM substrate ((Dabcyl)βAla-KPAKAAE(Edans)) in assay buffer, and this solution was added (20 μL/well) to the 384-well plate that had been pre-spotted with compound. Fluorescence intensity was then immediately read kinetically for 30 minutes with 2 minute read intervals to monitor cleavage of the internally quenched peptide substrate (excitation wavelength=340 nm, emission wavelength=490 nm, Molecular Devices Spectramax M5). Reaction rate (slope) was plotted against inhibitor concentration to derive the IC50.

Test [3] relates to Escherichia coli ATCC 25922 (E. coli). Briefly: Minimum inhibitory concentration, broth micro-dilution (CLSI). To be noted: ATCC25922, E. coli ATCC 25922, 35° C., 22 hours, read-out: MIC (μg/mL) E. coli. The test is classed as cell-based. The procedure:
Cells were inoculated onto plates of Trypyticase Soy Agar or Luria Agar respectively and grown at 35° C. for 20 hours. Inocula suspensions were prepared by scraping cells into 1 mL of testing media (cation adjusted Mueller Hinton Broth supplemented with 0.002% v/v Tween-80) and diluting to a final OD600 nm of 0.01.
as §2
Background: Broth dilution looks for growth in wells or tubes with falling amounts of substance.

The test system of test [4] is Escherichia coli MC4100 harboring the IMP4213 (E. coli IMP). Description: microbe, parasite or virus in culture. It counts as cell-based. To be noted: 22 h, read-out: MIC (μg/mL) E. coli IMP. The procedure:
as §1, §2

As for `CCCCCCCCCCCCCC(=O)N[C@@H](CCN)C(=O)N(C)[C@@H]1C(=O)N[C@@H](C)C(=O)N[C@H](c2noc(=O)[nH]2)Cc2ccc(OCCN)c(c2)-c2cc1ccc2OCCN` [Compound 143], the MIC worked out at 0.13 µg/mL (≈ 0.153 µM) in test [1], 0.5 µg/mL (≈ 0.588 µM) in test [3] and 0.023 µg/mL (≈ 0.0271 µM) in test [4]. In addition, the IC50 (as a rule, the concentration that inhibits the measured activity by half) in test [2] amounted to 1.5 nM.
